Patent US20150225790A1, “METHODS FOR IDENTIFYING SUBJECTS WITH AN INCREASED LIKELIHOOD OF RESPONDING TO CCR1 ANTAGONIST” (BRISTOL-MYERS SQUIBB COMPANY, priority 2012, published 2015)

Legend:
[1] = tested on: SPP1; assay: Whole genome mRNA profiling, whole blood + RANTES: SPP1; assay type: cell-based, human; conditions: probe 209875_s_at; healthy volunteer whole blood, RANTES 100 nM +/- BMS-817399 1 uM; 24 hours
Experimental: (§1) Gene profiling experiments to identify genes downstream of CCR1 signaling (via CCR1 ligand stimulation) were performed. It was shown that these genes were blocked following treatment with a CCR1 antagonist. Whole blood from three healthy volunteers was treated with RANTES (100 nM, CCL5), in the presence and absence of the CCR1 antagonist (50 nM, 1 μM) for 4 and 24 hours. Following the incubation, mRNA was isolated for whole genome mRNA profiling.
(§2) Lyophilized human recombinant CCR1 ligand RANTES (Peprotech, Rocky Hill, N.J.) was reconstituted to 100 μM per the manufacturer's instructions. BMS-817399 was reconstituted to 10 mM in 100% DMSO (Sigma-Aldrich, St. Louis Mo.) and further diluted 1:50 in 10% DMSO. […] RNA quantity and quality were assessed on the ND-8000 spectrophotometer (Thermo Scientific, Wilmington, Del.) and RNA integrity was assessed on the AGILENT® 2100 Bioanalyzer using the RNA 6000 Nano Lab Chip kit (Agilent Technologies, Santa Clara, Calif.).
(§3) RNA samples with yields ≧1.5 μg and RIN (RNA integrity number) values of 6.5 and above were randomized in 96-well plates and normalized to a concentration of 250 ng/μL in preparation for microarray analysis. […] Data obtained from the microarray analysis were analyzed by statisticians internal to Bristol-Myers Squibb. […]

[2] = tested on: CD86; assay: Whole genome mRNA profiling, whole blood + RANTES: CD86; assay type: cell-based, human; conditions: probe 210895_s_at; healthy volunteer whole blood, RANTES 100 nM +/- BMS-817399 1 uM
Experimental: as §1, §2, §3

[3] = Phase 1 trial in healthy human subjects: safety; assay type: in vivo
From the text: Current standard of care for the treatment of RA includes disease-modifying anti-rheumatic drugs that decrease immune activation and subsequent inflammation. However, a large proportion of patients are non-responsive to these medications, thus resulting in progression of disease symptoms. […] Further, identification of predictive biomarkers may allow for patient stratification in future clinical trials. Identification of patients most likely to respond favorably to the CCR1 antagonist may provide justification for use of a CCR1 antagonist earlier in the course of treatment, potentially preventing extensive structural damage of the joints.

[4] = tested on: KYNU; assay: Whole genome mRNA profiling, whole blood + RANTES: KYNU; assay type: cell-based, human; conditions: probe 217388_s_at; healthy volunteer whole blood, RANTES 100 nM +/- BMS-817399 1 uM
Experimental: as §1, §2, §3

[5] = tested on: CLEC5A; assay: Phase 1 trial, ex vivo RANTES-stimulated whole blood qRT-PCR: CLEC5A; assay type: in vivo, human; conditions: healthy volunteers, single and multiple oral doses; ex vivo 25 nM RANTES, 2 hours, 37° C.
Experimental: (§4) FIGS. 2A-D show relative CLEC5A and MERTK expression levels in a Phase I clinical trial. Healthy volunteers were treated with single or multiple doses of a CCR1 antagonist through oral administration at various dose levels; blood samples from subjects were treated ex vivo with CCR1 ligand RANTES. RNA was isolated and analyzed by qRT-PCR. Expression levels are represented as (negative) change in median CT (cycle threshold) value between the target (CLEC5A or MERTK) and the endogenous control (GAPDH) as a function of time.
(§5) In this study (Example 2), healthy volunteers were treated with single or multiple doses of a CCR1 antagonist through oral administration at various dose levels. Pharmacodynamic effects of the compound were assessed using an ex vivo functional assay at various times post dosing. For the assay, whole blood was collected at indicated time points following dosing with the CCR1 antagonist and stimulated ex vivo for 2 hours at 37° C. with 25 nM recombinant human RANTES. After the incubation, RNA was isolated and CLEC5A and MERTK mRNA levels, relative to the GAPDH housekeeping gene, were measured by qRT-PCR in triplicate at each time-point for each subject. The median cycle time (CT) for each gene was evaluated and changes in the CT values (ΔCT) were calculated by subtracting the median GAPDH CT value from the corresponding median values for CLEC5A CT or MERTK CT. […]

[6] = tested on: TLR8; assay: Whole genome mRNA profiling, whole blood + RANTES: TLR8; assay type: cell-based, human; conditions: probe 220832_at; healthy volunteer whole blood, RANTES 100 nM +/- BMS-817399 1 uM
Experimental: as §1, §2, §3

[7] = tested on: FCN1; assay: Whole genome mRNA profiling, whole blood + RANTES: FCN1; assay type: cell-based, human; conditions: probe 206237_at; healthy volunteer whole blood, RANTES 100 nM +/- BMS-817399 1 uM; 24 hours
Experimental: as §1, §2, §3

[8] = tested on: FPRL2; assay: Whole genome mRNA profiling, whole blood + RANTES: FPRL2; assay type: cell-based, human; conditions: probe 214560_at; healthy volunteer whole blood, RANTES 100 nM +/- BMS-817399 1 uM; 4 hours
Experimental: as §1, §2, §3

[9] = tested on: MERTK; assay: In vitro treatment of RA patient whole blood, qRT-PCR: MERTK; assay type: cell-based, human; conditions: 500 nM CCR1 antagonist, 3 hours
Experimental: (§6) FIGS. 3A-B show relative CLEC5A and MERTK expression levels in RA patient blood. Whole blood from RA patients was shipped overnight and treated with 500 nM CCR1 antagonist for 3 hours. RNA was isolated and analyzed by qRT-PCR. Expression levels are represented as mRNA levels relative to the untreated control samples as a function of treatment condition. Percent inhibition of gene expression by the investigational drug was calculated and is represented as “% change”. C-reactive protein (CRP) levels of subjects, as determined by Bioreclamation, are listed as well.
(§7) Whole blood, collected from RA patients, was stimulated with 500 nM of a CCR1 antagonist for 3 hours at 37° C. After the incubation, RNA was isolated and the gene expression levels of CLEC5A, MERTK, and the endogenous control HPRT1 were assessed by qRT-PCR for each subject. CLEC5A and MERTK mRNA levels (normalized to that of HPRT1) were calculated relative to the untreated control sample for each patient.
(§8) Whole blood, drawn in EDTA VACUTAINER® tubes from RA patients, was obtained from Bioreclamation for in vitro treatment with BMS-817399 and subsequent qRT-PCR analysis. […] Serum CRP and whole blood ESR levels of qualified subjects were also assessed by Bioreclamation. […] Data were analyzed in the SDS software for relative quantitation. […]

[10] = tested on: MERTK; assay: Phase 1 trial, ex vivo RANTES-stimulated whole blood qRT-PCR: MERTK; assay type: in vivo, human; conditions: healthy volunteers, single and multiple oral doses; ex vivo 25 nM RANTES, 2 hours, 37° C.
Experimental: as §4, §5

[11] = tested on: CLEC5A; assay: In vitro treatment of RA patient whole blood, qRT-PCR: CLEC5A; assay type: cell-based, human; conditions: 500 nM CCR1 antagonist, 3 hours
Experimental: as §6, §7, §8

[12] = tested on: PHLDA2; assay: Whole genome mRNA profiling, whole blood + RANTES: PHLDA2; assay type: cell-based, human; conditions: probe 209803_s_at; healthy volunteer whole blood, RANTES 100 nM +/- BMS-817399 1 uM
Experimental: as §1, §2, §3

[13] = tested on: MERTK; assay: Whole genome mRNA profiling, whole blood + RANTES: MERTK; assay type: cell-based, human; conditions: probe 206028_s_at; healthy volunteer whole blood, RANTES 100 nM +/- BMS-817399 1 uM; 4 hours
Experimental: as §1, §2, §3

[14] = tested on: CLEC5A; assay: Whole genome mRNA profiling, whole blood + RANTES: CLEC5A; assay type: cell-based, human; conditions: probe 219890_at; healthy volunteer whole blood, RANTES 100 nM +/- BMS-817399 1 uM; 4 hours
Experimental: as §1, §2, §3

[15] = tested on: CSPG2; assay: Whole genome mRNA profiling, whole blood + RANTES: CSPG2; assay type: cell-based, human; conditions: probe 204620_s_at; healthy volunteer whole blood, RANTES 100 nM +/- BMS-817399 1 uM
Experimental: as §1, §2, §3

CC(C)[C@@H](NC(=O)NCC(C)(C)O)C(=O)N1CC[C@](O)(c2ccc(Cl)cc2)C(C)(C)C1 [BMS-817399]
SPP1 (osteopontin) expression, Fold Change [1]: −6.547 | SPP1 (osteopontin) expression, Mean [1]: −2.711 | CD86 expression, Fold Change [2]: −2.559 | CD86 expression, Mean [2]: −1.356 | safety profile [3]: acceptable safety profile | KYNU (kynureninase) expression, Fold Change [4]: −2.32 | KYNU (kynureninase) expression, Mean [4]: −1.214 | inhibition of CLEC5A gene expression in whole blood [5]: rapid and potent inhibition | TLR8 expression, Fold Change [6]: −2.232 | TLR8 expression, Mean [6]: −1.158 | FCN1 (ficolin 1) expression, Fold Change [7]: −2.234 | FCN1 (ficolin 1) expression, Mean [7]: −1.16 | FPRL2 expression, Fold Change [8]: −3.571 | FPRL2 expression, Mean [8]: −1.836 | decrease of MERTK expression levels relative to the untreated control samples [9]: more than 30% | inhibition of MERTK gene expression in whole blood [10]: rapid and potent inhibition | decrease of CLEC5A expression levels relative to the untreated control samples [11]: more than 30% | PHLDA2 expression, Fold Change [12]: −2.252 | PHLDA2 expression, Mean [12]: −1.171 | MERTK expression, Fold Change [13]: −2.417 | MERTK expression, Mean [13]: −1.274 | CLEC5A expression, Fold Change [14]: −5.123 | CLEC5A expression, Mean [14]: −2.357 | CSPG2 (versican) expression, Fold Change [15]: −4.39 | CSPG2 (versican) expression, Mean [15]: −2.134
